# Results as given in US20240366558A1, “TREATING LONG COVID-19 WITH UROLITHINS” (Amazentis SA, priority 2021, published 2024).
# Assays:
# Long COVID = experiment: Patients afflicted with Long COVID administered 500 mg Mitopure (Urolithin A); type: in vivo, human; conditions: three Long COVID patients, patient-indicated
# Procedure: Three patients afflicted with Long COVID were administered 500 mg Mitopure™ (Urolithin A). Each patient indicated improvement in symptoms including reduced fatigue and improved muscle function.
# human PBMCs = experiment: RNA-seq transcriptomic analysis / GSEA of PBMCs from healthy elderly supplemented with Urolithin A; type: in vivo; conditions: 500 mg/day for 28 days, end of treatment vs baseline, placebo-filtered
# Procedure: RNA was extracted from frozen human PBMCs and quality of extraction controlled with Agilent Fragment Analyzer System. RNA-seq library was prepared as strand-specific cDNA library, after the following steps: Purification of poly-A containing mRNA molecules; mRNA fragmentation; Random primed cDNA synthesis (strand-specific); Adapter ligation and adapter specific PCR amplification. RNA-seq run was performed with the NovaSeq6000 using S4 flowcells with 2×150 bp giving at least 30 million read pairs per sample
# The RNA-Seq reads were aligned to the reference human transcriptome using Bowtie generating genome/transcriptome alignments. TopHat identifid the potential exon-exon splice junctions of the initial alignment. Then Cufflinks identified and quantified the transcripts from the preprocessed RNA-Seq alignment assembly. After this, Cuffmerge merged the identified transcript pieces to full length transcripts and annotates the transcripts based on the given annotations. Finally, merged transcripts from two or more samples/conditions were compared, using Cuffdiff to determine the differential expression levels at transcript and gene level including a measure of significance between samples/conditions.
# Gene set enrichment analysis (GSEA) was conducted using R package clusterProfiler, v. 3.18.068. Enrichments of Gene Ontology (GO) Biological Process (BP) was investigated. All the genes subjected to the DE analysis and that passed the independent filtering of DEseq2 were ranked by shrunk log 2 fold change values and used as input data for the analysis. Ensembl IDs of the genes were converted to Entrez IDs for the analysis using biomaRt, v. 2.46. Minimum and maximum genes et sizes were set to 15 and 500, respectively. In order to adjust for the placebo effect, the GSEA results of Urolithin A at 500 mg were filtered to exclude enriched terms (p-value <0.05) obtained from the GSEA of the Placebo DEGs. Key pathways were visualised as bar plots ranked by Normalized Enrichment score (NES).
# RNA-seq transcriptomic analysis was performed in healthy elderly supplemented with either Urolithin A (UA) at 500 mg/day or Placebo for 28 days. Peripheral blood mononuclear cells (PBMCs) were isolated and collected at baseline and at the end of the study. RNA was extracted from these subjects and used to perform RNA-seq and determine biological pathways modulated specifically by Urolithin A, but not Placebo, comparing end-of treatment to baseline
compound,measurement,setting,value
"O=c1oc2cc(O)ccc2c2ccc(O)cc12 [Urolithin A, urolithin A]",fatigue,Long COVID,reduced
same,muscle function,Long COVID,improved
same,symptoms,Long COVID,improvement
same,"Gene Ontology gene set ""mitochondrial gene expression""",human PBMCs,up-regulated
same,"Gene Ontology gene set ""mitochondrial respiratory chain complex assembly""",human PBMCs,up-regulated
same,"Gene Ontology gene set ""neutrophil activation""",human PBMCs,down-regulated
same,"Gene Ontology gene set ""oxidative phosphorylation""",human PBMCs,up-regulated
same,"Gene Ontology gene set ""regulation of response to cytokine stimulus""",human PBMCs,down-regulated
